Results from the NIST ThermoML archive (doi:10.1021/acs.jced.8b00595).

Conditions: 101.3 kPa, Liquid; for viscosity: Concentric cylinders viscometry; for mass density: Vibrating tube method

COC(C)(C)C [2-methoxy-2-methylpropane]
Conditions | mass density [kg/m3] | viscosity [mPa·s]
273.15 K | 761.3 | 0.495
288.15 K | 745.9 | 0.421
298.15 K | 735 | 0.381
308.15 K | 724.6 | 0.328
